From patent US11890318B2, “Methods and compositions for modulating appetite and intake of sodium” (California Institute of Technology, priority 2019, dated 2024)
Entries after “also recorded” stand apart in the source; their conditions may differ.

Columns and labels:
[1] = test system: pre-LC^PDYN neurons expressing hM4Di; assay: Slice electrophysiology, chemogenetic (hM4Di) inhibition by CNO; type: cell-based; details: AAV-DIO-hM4Di-mCherry; 10 μM CNO puffed 10 sec; 2 mice; FIG. 8E
Protocol: 250-μm coronal slices were obtained using a vibratome (VT-1000s, Leica) in ice-cold sucrose-aCSF (artificial cerebrospinal fluid) solution (Sucrose 213, KCl 2.5, NaH2PO4 1.2, NaHCO3 25, glucose 10, MgSO4 7, CaCl2 1, in mM at pH 7.3), and then incubated in HEPES-holding aCSF (NaCl 92, KCl 2.5, NaH2PO4 1.2, NaHCO3 30, HEPES 20, glucose 25, Na-ascorbate 5, thiourea 2, Na-pyruvate 3, MgSO4 2, CaCl2 2, in mM at pH 7.3-7.4). Slices were recovered at 34.5° C. for 45 min and then held at room temperature until use.
For patch-clamp recording, slices were placed in a recording chamber perfused with aCSF (NaCl 124, KCl 2.5, NaH2PO4 1.2, NaHCO3 25, glucose 10, MgSO4 1, CaCl2 2, in mM, at pH 7.3) on an upright microscope (Examiner.D1, Zeiss). Whole-cell recordings were achieved using glass pipettes (5-8 MΩ) filled with intracellular solution (for DREADD and iC++ experiments, K-gluconate 145, NaCl 2, KCl 4, HEPES 10, EGTA 0.2, Mg-ATP 4, Na-GTP 0.3; for GABAergic postsynaptic currents, CsCl 145, NaCl 2, HEPES 10, EGTA 0.2, QX-314 bromide 5, Mg-ATP 4, Na-GTP 0.3, in mM at pH 7.25; for glutamatergic postsynaptic currents, Cs(CH3)SO3 145, NaCl 2, HEPES 10, EGTA 0.2, QX-314 bromide 5, Mg-ATP 4, Na-GTP 0.3, in mM, at pH 7.25). Electrical signals were filtered at 3 k Hz with Axon MultiClamp 700B (Molecular Devices) and collected at 20 kHz with Axon Digidata 1550A (Molecular Devices). […]

pre-LC^PDYN neurons [2] = assay: Chemogenetic manipulation, sodium and water consumption; type: in vivo, mice; details: CNO 10 mg/kg intraperitoneal
Description: For ChR2 photostimulation. 473 nm laser pulses (20 ms, 20 Hz) were delivered via an optic cable (MFP-FC-ZF, Doric Lenses) using a pulse generator (Sapphire 9200 from Quantum composers or SYS-A310 from WPI). The laser intensity was maintained at 5-10 mW at the tip of the fiber. Unless otherwise noted, photostimulation was delivered for 1 s at 3 s intervals throughout the behavior session. For iC++ photoinhibition, 473 nm laser was continuously turned on throughout the session at 3 mW at the tip of the fiber. For chemogenetic manipulation (FIGS. 8E-H), CNO (Sigma, 10 mg/kg) or vehicle (water) was administered intraperitoneal 20 min before the sodium consumption experiment.
To induce sodium appetite, animals were injected with furosemide (Sigma) at a dose of 50 mg/kg body weight. Low sodium diet (TD. 90228, ENVIGO) was provided for 2 days after the injection of furosemide. For water-restriction experiments, animals were kept in their home cage without water, and were provided with 1 mL of water daily. For food restriction experiments, animals were deprived of food up to 24 hrs with normal water provided. All assays were performed in a custom gustometer (Dialog Instruments) or Biodaq monitoring system (Research Diets Inc). All sodium-depleted animals were trained in a gustometer before experiments. Animals which licked at least 150 licks during the 30-min session were used for further behavioral assays. After every sodium-depletion round, animals were recovered for at least 4 days with the normal diet.
(§1) For appetite specificity assay (FIG. 7C), three different solutions were presented to animals during the same session, and their preference was measured as a lick number. For each trial, 20 sec of photostimulation was delivered to the animal with an inter-trial-interval of 60 secs. Water, 0.5 M KCl, 0.5 M NaCl, or 0.5 M NaCl+30 μM amiloride was used for preference assay. For sodium consumption assay (FIGS. 1E, 1G, and 1H), animals were given ad libitum access to 0.5 M NaCl, water or an empty spout for either 7.5 or 30 min.

pre-LC^PDYN neurons [3] = assay: Fibre photometry recording of GCaMP6s signals from pre-LC^PDYN neurons during ingestion or IG infusion; type: in vivo, mice
Protocol: For photometry recording, animals were given either 5- or 10-minutes access to stimuli. To examine sodium specific responses of pre-LC^PDYN neurons (FIGS. 3D, 3E), animals were presented with three solutions during the session. First, animals were given 5 min access to 0.5 M KCl (FIG. 3D) or 0.5 M NaCl+0.1 mM amiloride (FIG. 3E). Then animals had 5 min access to water. Finally, animals were given 5 min access to 0.5 M NaCl. The interval between trials was 5 min. In FIG. 4B, 0.5 M NaCl, deionized water, or glucose solution (5 M) was infused via an intragastric catheter. Solutions were delivered at 0.1 ml/min for 5 min (water and sodium) or 10 min (food) using an infusion syringe pump (NE-300, New Era Pump Systems Inc). 10 min after gastric infusion, animals were given access to nutrients and their consumption was quantified for 10 min (for water and 0.5 M NaCl), or 30 min (for normal chow). Either air infusion (for water), or water infusion (for sodium and food) was used as a control stimulus. In FIG. 4D, either 0.15 M NaCl, water, or air was infused at a rate of 0.1 ml/min while recording the neural activity by photometry. For control, oral ingestion (FIG. 4C), the same set of animals were given access to 0.15 M NaCl. For all photometry assays, animals were acclimatized for 10-15 min in the chamber before stimuli were presented. Bulk fluorescence signals were collected using fibre photometry as previously described. Briefly, data were extracted and subjected to a low-pass filter at 1.8 Hz. A linear function was used to scale up the 405-nm channel signal to the 490-nm channel signal to obtain the fitted 405-nm signal. The resultant ΔF/F was calculated as (raw 490 nm signal−fitted 405 nm signal)/(fitted 405 nm signal). ΔF/F was then time-binned by a factor of 2.5 times the sampling frequency and down-sampled to 10 Hz. For all bouts, the mean fluorescence for 5 min before the first lick was calculated and subtracted from the entire session. The licks from the lickometer were simultaneously recorded. The area under the curve (AUC) was quantified by integrating the baseline-subtracted fluorescence signals for 30 sec after the start of the bout. For FIG. 10D, the data were quantified as ΔF/F change between 1 sec prior to, and at the first lick (0 sec). For IG infusion experiments (FIG. 4E), AUC was quantified during the 5-min of infusion.

[4] = Intragastric infusion and subsequent ingestive behavior; type: in vivo; details: sodium-depleted mice
Protocol: In FIG. 4B, 0.5 M NaCl, deionized water, or glucose solution (5 M) was infused via an intragastric catheter. Solutions were delivered at 0.1 ml/min for 5 min (water and sodium) or 10 min (food) using an infusion syringe pump (NE-300, New Era Pump Systems Inc). 10 min after gastric infusion, animals were given access to nutrients and their consumption was quantified for 10 min (for water and 0.5 M NaCl), or 30 min (for normal chow). Either air infusion (for water), or water infusion (for sodium and food) was used as a control stimulus. In FIG. 4D, either 0.15 M NaCl, water, or air was infused at a rate of 0.1 ml/min while recording the neural activity by photometry. For control, oral ingestion (FIG. 4C), the same set of animals were given access to 0.15 M NaCl.

dBNST→pre-LC neurons = assay: Optical recording of calcium responses of dBNST→pre-LC neurons; type: in vivo, mice; details: sodium-depleted conditions; FIG. 5F
Protocol: For all photometry assays, animals were acclimatized for 10-15 min in the chamber before stimuli were presented. Bulk fluorescence signals were collected using fibre photometry as previously described. Briefly, data were extracted and subjected to a low-pass filter at 1.8 Hz. A linear function was used to scale up the 405-nm channel signal to the 490-nm channel signal to obtain the fitted 405-nm signal. The resultant ΔF/F was calculated as (raw 490 nm signal−fitted 405 nm signal)/(fitted 405 nm signal). ΔF/F was then time-binned by a factor of 2.5 times the sampling frequency and down-sampled to 10 Hz. For all bouts, the mean fluorescence for 5 min before the first lick was calculated and subtracted from the entire session. The licks from the lickometer were simultaneously recorded. The area under the curve (AUC) was quantified by integrating the baseline-subtracted fluorescence signals for 30 sec after the start of the bout. For FIG. 10D, the data were quantified as ΔF/F change between 1 sec prior to, and at the first lick (0 sec). For IG infusion experiments (FIG. 4E), AUC was quantified during the 5-min of infusion.
To label the dBNST→pre-LC circuit, 100 nl of CAV-Cre was injected into the pre-LC followed by the injection of AAV5-DIO-mCherry or AAV1-flex-GCaMP6S into the dBNST. These animals were used for experiments at least two weeks after the injection.

[5] = test system: Pre-LC^PDYN-stimulated animals; assay: Preference assay (appetite specificity) under photostimulation of pre-LC^PDYN neurons; type: in vivo, mice; details: photostimulated animals; 0.5 M NaCl+30 μM amiloride; FIG. 7C
Protocol: as §1

**Q.** With `C[N+]1([O-])CCN(C2=Nc3cc(Cl)ccc3Nc3ccccc32)CC1` [CNO, clozapine N-oxide] as the compound, how does the “pre-LC^PDYN neurons inhibited by CNO” value [1] read?
**A.** The value was 13 out of 14.

**Q.** What about the “thirst or sodium appetite in control animals” value (pre-LC^PDYN neurons [2]; AAV-DIO-mCherry injected animals, FIG. 8H) of the same compound?
**A.** Its value is “did not affect thirst or sodium appetite”.

**Q.** And the “thirst under chemogenetic inhibition” value (pre-LC^PDYN neurons [2]; hM4Di, FIG. 8G)?
**A.** Its value is “did not affect thirst”.

**Q.** What about the “sodium intake under chemogenetic inhibition” value (pre-LC^PDYN neurons [2]; hM4Di, sodium-depleted animals, FIG. 8G) of the same compound?
**A.** The value was “reduced sodium intake”.

**Q.** Which “pre-LC^PDYN neuron activity upon ingestion of KCl” value (pre-LC^PDYN neurons [3]; sodium-depleted animals, 0.5 M KCl, FIG. 3D) does the source give for `[Cl-].[K+]` [KCl] here?
**A.** The value was “no suppression was observed; also recorded: did not affect”.

**Q.** For `[Cl-].[Na+]` [NaCl], which “subsequent sodium ingestion after gastric preloading of NaCl” value ([4]; IG 0.5 M NaCl, 0.1 ml/min for 5 min, FIG. 4B left) is on record?
**A.** Its value is “did not affect”.

**Q.** And the “appetite reduction after a long period of IG infusion” value ([4]; IG NaCl, after 2 hrs)?
**A.** The value was 41.3±6.0%.

**Q.** What about the “sodium appetite after oral NaCl contact” value ([4]; oral, FIG. 4B left) of the same compound?
**A.** Its value is “quickly quenched the appetite”.

**Q.** What about the “pre-LC^PDYN neuron activity, low concentration of NaCl” value (pre-LC^PDYN neurons [3]; 0.06 M NaCl, FIG. 10B) of the same compound?
**A.** The value was “exhibited inhibitory effects”.

**Q.** What about the “pre-LC^PDYN neuron activity after brief NaCl intake” value (pre-LC^PDYN neurons [3]; NaCl intake for 1 sec, FIG. 3F) of the same compound?
**A.** The value was “robust suppression for several minutes; also recorded: induced persistent suppression”.

**Q.** And the “neural activity of pre-LC^PDYN neurons, IG infusion of NaCl” value (pre-LC^PDYN neurons [3]; intragastric infusion, 0.15 M NaCl, 0.1 ml/min, FIGS. 4D and 4E)?
**A.** Its value is “no inhibitory effect; also recorded: not affected”.

**Q.** What about the “neural activity of pre-LC^PDYN neurons, oral NaCl consumption” value (pre-LC^PDYN neurons [3]; oral, 0.15 M NaCl, FIGS. 4C and 4E) of the same compound?
**A.** The value was “drastically reduced”.

**Q.** Which “responses of dBNST→pre-LC neurons upon NaCl intake with amiloride” value (dBNST→pre-LC neurons) does the source give for `N=C(N)NC(=O)c1nc(Cl)c(N)nc1N` [amiloride, reference compound] here?
**A.** Its value is “strongly inhibited”.

**Q.** What about the “NaCl consumption in the presence of amiloride” value [5] of the same compound?
**A.** Its value is “reduced”.

**Q.** What about the “NaCl-induced suppression of pre-LC^PDYN neurons with amiloride” value (pre-LC^PDYN neurons [3]; sodium-depleted animals, 0.5 M NaCl+0.1 mM amiloride, FIG. 3E) of the same compound?
**A.** Its value is “fully abolished; also recorded: eliminated inhibition”.
